Experimental data from US4452813A, “Sulfonate derivatives, process for preparing same and antilipemic compositions containing the derivative” (Taiho Pharmaceutical Company Limited, priority 1981, dated 1984).

What was measured:
[1] = target: esterase (purified microsome fraction of the liver of a rat); test: Esterase inhibiting activity (hydrolysis of methyl butyrate); type: biochemical; conditions: methyl butyrate substrate, pH 8.0, 37° C., 60 minutes
Protocol: 1. Esterase Inhibiting Activity
A 10 micromole quantity of methyl butyrate in a 50% ethanol solution is added as a substrate to a specified amount of buffer solution (pH 8.0) containing 0.1 mole of trishydrochloric acid. To the mixture is further added a 50% ethanol solution of the compound of the invention, immediately followed by addition of an esterase solution prepared from a purified microsome fraction of the liver of a rat (adjusted to hydrolyze 9 micromoles of methyl butyrate at 37° C. in one hour). The mixture is reacted at 37° C. for 60 minutes.
After the reaction, alkaline hydroxylamine is added to the mixture to form a hydroxamic acid derivative of methyl butyrate, and a ferric salt is added to the derivative. The resulting red color is colorimetrically determined (at a wavelength of 540 nm) to determine the amount of remaining methyl butyrate. The esterase inhibiting ratios of the present compound at least at three concentrations are plotted as ordinate, and the logarithms of the concentrations as abscissa to obtain a line, which gives the 50% inhibition concentration (IC50).

Chymotripsin = Chymotripsin (Bos taurus, UniProt P00766); test: Chymotripsin inhibiting activity (hydrolysis of ATEE); type: biochemical; conditions: 0.5 h; 1 × 10^-4 mol; 20 min preincubation, ATEE 30 min, 37° C., pH 8.0
Protocol: 2. Chymotripsin Inhibiting Activity
Chymotripsin (0.1 unit) serving as an enzyme solution is added to a specified quantity of buffer solution (pH 8.0) containing 0.1 mole of trishydrochloric acid. To the mixture is further added a 50% ethanol solution of the compound of the invention. The mixture is reacted at 37° C. for 20 minutes.
On completion of the reaction, 10 micromoles of […] (ATEE) serving as a substrate is added to the mixture, and the resulting mixture is reacted at 37° C. for 30 minutes.
After the completion of the reaction, the amount of remaining ATEE is determined by the same hydroxamic acid method as above. The percent chymotripsin inhibition is given by [formula] wherein A is the amount of hydrolzed esters in the reaction system not containing the compound of the invention, and B is the amount of hydrolyzed esters in the reaction system containing the present compound.

[2] = test system: triglycerides content in the plasma; test: Antilipemic effect: inhibition of olive oil-induced hyperlipidemia, plasma triglycerides; type: in vivo, male Wister rats; conditions: Rattus norvegicus, 100 mg compound in 5 ml olive oil, 5 ml/kg oral, 2 hours, read-out: Antilipemic effect IGI (%) (percent hyperlipidemia inhibition, triglycerides)
Protocol: Seven-week-old male Wister rats weighing 200 to 220 g are used, 5 rats in each group.
The compound of the invention (100 mg) is dissolved in 5 ml of olive oil. The olive oil containing the compound is orally given to the rat with a probe at a dose of 5 ml/kg. Two hours thereafter, 6 ml of whole blood is withdrawn from the descending aorta of the rat under ether anesthesia with a syringe containing heparin. The blood is centrifuged at 5° C. and 3000 r.p.m. to obtain the plasma. The plasma collected is used for determining the triglycerides content, using a triglycerides measuring kit (trade mark "Triglycerides-B Test Wako," product of Wako Junyaku Co., Ltd., Japan). Olive oil containing no compound is similarly given to a control group, while no treatment is conducted for a normal group. The triglycerides content in the plasma is also determined for these groups in the same manner as is the case with the test groups.
The percent hyperlipidemia inhibition achieved by the present compound is given by [formula] in which A is the triglycerides content of the control group, B is the triglycerides content of the normal group, and C is the triglycerides content of the group to which the present compound is given.

[3] = Acute toxicity, oral, one week; conditions: rat, in vivo, 5% gum arabic suspension
Source text: Six-week-old male Wister rats weighing 180 to 200 g are used, 5 rats in each group. The present compound is suspended in a 5% aqueous solution of gum arabic, and the suspension is orally given to the rats. For one week after the start of the test, the rats are checked evey day for general toxicity symptoms, body weight and death to determine the LD50 value.

| Compound | IC50 [1] [µM] | inhibition at 100 µM (Chymotripsin) [%] | inhibition in vivo at 100 mg/kg [2] [%] | LD50 at 168 h [3] [mg/kg] |
| --- | --- | --- | --- | --- |
| Cc1ccc(S(=O)(=O)OCC(=O)CC(C)C2CCCCC2)cc1 (stereo not shown) [Compound 9] | 4.2 | 31 | 70 | > 2000 |
| Cc1ccc(S(=O)(=O)OCC(=O)C(C)CC2CCCCC2)cc1 (stereo not shown) [Compound 2] | 7.8 | 90 | 50 | > 2000 |
| CC(C)[C@H]1CC[C@H](C(=O)COS(=O)(=O)c2ccccc2)CC1 [Compound 25, trans-2-(benzene-sulfonyloxy)-1-(4-isopropylcyclohexyl)-1-ethanone] | 0.065 | 62 | 90 | > 3000 |
| CCC1CCC(C(=O)COS(=O)(=O)c2ccccc2)CC1 (stereo not shown) [Compound 22] | 0.2 | 58 | 59 | > 2000 |
| CCOc1ccc(S(=O)(=O)OCC(=O)CC2CCCCC2C)cc1 (stereo not shown) [Compound 19] | 5.4 | 57 | 74 | > 3000 |
| Cc1ccc(S(=O)(=O)OCC(=O)CC2CCC(C)CC2)cc1 (stereo not shown) [Compound 15, 1-(4-methylcyclohexyl)-3-(p-toluenesulfonyloxy)-2-propanone] | 1.4 | 94 | 85 | > 2000 |
| CC(C)C[C@H]1CC[C@@H](C(=O)COS(=O)(=O)c2ccccc2)CC1 [Compound 30] | 4 | 30 | 57 | > 3000 |
| Cc1ccc(S(=O)(=O)OCC(=O)[C@H]2CC[C@@H](C(C)(C)C)CC2)cc1 [Compound 36] | 86 | 44 | 52 | > 3000 |
| COc1ccc(S(=O)(=O)OCC(=O)C(C)CC2CCCCC2)cc1 (stereo not shown) [Compound 3] | 4 | 93 | 63 | > 3000 |
| CC(C)(C)[C@H]1CC[C@@H](C(=O)COS(=O)(=O)c2ccccc2)CC1 [Compound 34] | 4.6 | – | 52 | > 3000 |
| CCOc1ccc(S(=O)(=O)OCC(=O)C(CC)CC2CCCCC2)cc1 (stereo not shown) [Compound 7] | 200 | 13 | 71 | > 3000 |
| CC(CC1CCCCC1)C(=O)COS(=O)(=O)c1ccccc1 (stereo not shown) [Compound 1, 1-benzenesulfonyloxy-4-cyclohexyl-3-methyl-2-butanone] | 0.35 | 100 | 60 | > 2000 |
| CCC(CC1CCCCC1)C(=O)COS(=O)(=O)c1ccccc1 (stereo not shown) [Compound 5, 1-benzenesulfonyloxy-4-cyclohexyl-3-ethyl-2-butanone] | 4.7 | 12 | 80 | > 2000 |
| COc1ccc(S(=O)(=O)OCC(=O)CC(C)C2CCCCC2)cc1 (stereo not shown) [Compound 10, 4-cyclohexyl-1-(4-methoxybenzenesulfonyloxy)2-pentanone] | 3.5 | 22 | 46 | > 3000 |
| CCOc1ccc(S(=O)(=O)OCC(=O)CC2CCC(C)CC2)cc1 (stereo not shown) [Compound 16] | 5 | 81 | 11 | > 3000 |
| Cc1cc(C)c(S(=O)(=O)OCC(=O)[C@H]2CC[C@@H](C(C)C)CC2)c(C)c1 [Compound 28] | 1.2 | – | – | > 3000 |
| CC(C)C1CCC(CC(=O)COS(=O)(=O)c2ccccc2)CC1 (stereo not shown) [Compound 21] | 6 | 94 | 70 | > 3000 |
| CCC(CC1CCCCC1)C(=O)COS(=O)(=O)c1ccc(OC)cc1 (stereo not shown) [Compound 6] | – | – | 52 | > 3000 |

| Compound | IC50 [1] [µM] | inhibition at 100 µM (Chymotripsin) [%] | inhibition in vivo at 100 mg/kg [2] [%] | LD50 at 168 h [3] [mg/kg] |
| --- | --- | --- | --- | --- |
| CC(CC(=O)COS(=O)(=O)c1ccccc1)C1CCCCC1 (stereo not shown) [Compound 8] | 0.8 | 31 | 73 | > 3000 |
| CCC(C(=O)COS(=O)(=O)c1ccc(C)cc1)C1CCC(C)CC1 (stereo not shown) [Compound 13] | 20 | 50 | – | > 2000 |
| CC(C)[C@H]1CC[C@@H](C(=O)COS(=O)(=O)c2ccccc2)CC1 [Compound 24] | 0.7 | 16 | 60 | > 3000 |
| Cc1cc(C)c(S(=O)(=O)OCC(=O)CC(C)C2CCCCC2)c(C)c1 (stereo not shown) [Compound 12] | 1 | 24 | 39 | > 3000 |
| CC1CCCCC1CC(=O)COS(=O)(=O)c1ccccc1 (stereo not shown) [Compound 17, 1-benzenesulfonyloxy-3-(2-methylcyclohexyl)-2-propanone] | 0.032 | 97 | 72 | > 2000 |
| CCOc1ccc(S(=O)(=O)OCC(=O)C(CC)C2CCC(C)CC2)cc1 (stereo not shown) [Compound 14] | 40 | 40 | 81 | > 3000 |
| CCOc1ccc(S(=O)(=O)OCC(=O)C2CCC(CC)CC2)cc1 (stereo not shown) [Compound 23] | 1.4 | 24 | 67 | > 3000 |
| Cc1cc(C)c(S(=O)(=O)OCC(=O)[C@H]2CC[C@H](C(C)C)CC2)c(C)c1 [Compound 29] | 0.13 | – | – | > 3000 |
| Cc1ccc(S(=O)(=O)OCC(=O)CC2CCCCC2C)cc1 (stereo not shown) [Compound 18] | 8.4 | 72 | – | > 2000 |
| CC(C)C[C@H]1CC[C@H](C(=O)COS(=O)(=O)c2ccccc2)CC1 [Compound 31] | 1.6 | 43 | 79 | > 3000 |
| CCOc1ccc(S(=O)(=O)OCC(=O)CC(C)C2CCCCC2)cc1 (stereo not shown) [Compound 11] | 7.2 | 19 | 60 | > 3000 |
| CCC(C)[C@H]1CC[C@H](C(=O)COS(=O)(=O)c2ccccc2)CC1 (stereo partly shown) [Compound 33] | 0.17 | 19 | 76 | > 3000 |
| CCC(C)[C@H]1CC[C@@H](C(=O)COS(=O)(=O)c2ccccc2)CC1 (stereo partly shown) [Compound 32] | 0.56 | 13 | 61 | > 3000 |
| CC(C)(C)[C@H]1CC[C@H](C(=O)COS(=O)(=O)c2ccccc2)CC1 [Compound 35] | 4.6 | – | 72 | > 3000 |
| CCOc1ccc(S(=O)(=O)OCC(=O)C(C)CC2CCCCC2)cc1 (stereo not shown) [Compound 4] | 23 | 78 | 52 | > 3000 |
| CCOc1ccc(S(=O)(=O)OCC(=O)[C@H]2CC[C@H](C(C)C)CC2)cc1 [Compound 27] | 2 | 35 | 76 | > 3000 |
| CCOc1ccc(S(=O)(=O)OCC(=O)[C@H]2CC[C@@H](C(C)C)CC2)cc1 [Compound 26] | 11 | 14 | 50 | > 3000 |
